34 compounds from US20050009840A1 (SUGEN, INC., priority 2003, published 2005) can be followed below.

In the test the target is T1, Met kinase domain (GST fusion protein) (Homo sapiens, UniProt P08581).
T1 construct: Purified GST fusion protein containing the Met kinase domain
Briefly: Met transphosphorylation assay (ELISA, poly(glu-tyr) substrate).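 Further: Cell-free ELISA with plate-bound poly(Glu:Tyr 4:1) phosphorylated by GST-fused Met kinase domain plus ATP and Mn2+, phosphotyrosine detected by anti-phosphotyrosine antibody with HRP and ABTS read-out.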 The test is classed as biochemical. (In general: ELISA stands for enzyme-linked immunosorbent assay.)

The mark [1] stands for this setting: plain numbers in column Met IC50 (μM) of Table 2, read-out: Met IC50.

Where two headings read alike, the source gives them in different places. Where only a bound is given, the exact number is not on record here.

T1 sequence (P08581 1078-1345 limits assumed): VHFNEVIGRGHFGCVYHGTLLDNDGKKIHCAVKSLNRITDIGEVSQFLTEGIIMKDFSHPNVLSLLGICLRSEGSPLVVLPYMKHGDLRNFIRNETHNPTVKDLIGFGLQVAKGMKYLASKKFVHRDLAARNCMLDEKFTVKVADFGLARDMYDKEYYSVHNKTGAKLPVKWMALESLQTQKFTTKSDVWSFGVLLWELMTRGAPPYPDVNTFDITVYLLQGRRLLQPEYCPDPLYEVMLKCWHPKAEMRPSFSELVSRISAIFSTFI

Turning to `CC(Oc1cc(-c2cccc(C(=O)N3CCC[C@@H]3CN3CCCC3)c2)cnc1N)c1c(Cl)ccc(F)c1Cl` (stereo partly drawn) [Example I-318, (3-{6-Amino-5-[1-(2,6-dichloro-3-fluoro-phenyl)-ethoxy]-pyridin-3-yl}-phenyl)-((R)-2-pyrrolidin-1-ylmethyl-pyrrolidin-1-yl)-methanone], the IC50 (in general, the concentration that inhibits the measured activity by half) (Table 2, read-out: Met IC50) worked out at 0.13 µM. In the case of `Nc1ncc(-c2ccc(C(=O)NCCN3CCOCC3)cc2)cc1OCc1ccc(Cl)cc1Cl` [Example I-180, 4-[6-Amino-5-(2,4-dichloro-benzyloxy)-pyridin-3-yl]-N-(2-morpholin-4-yl-ethyl)-benzamide], where the note is “read-out: Met IC50”, the IC50 is 3.8 µM. For `CC(Oc1cc(-c2ccc(OC3CCN(C)CC3)cc2)cnc1N)c1c(Cl)ccc(F)c1Cl` (stereo not shown) [Example I-363, 3-[1-(2,6-Dichloro-3-fluoro-phenyl)-ethoxy]-5-[4-(1-methyl-piperidin-4-yloxy)-phenyl]-pyridin-2-ylamine], the concentration for half-maximal inhibition (IC50) (Table 2, read-out: Met IC50) was 0.052 µM. For the compound `Nc1ncc(-c2ccc(NS(=O)(=O)CCN3CCCCC3)cc2)cc1OCc1c(F)ccc(F)c1Cl` [Example I-248, 2-Pipendin-1-yl-ethanesulfonic acid {4-[6-amino-5-(2-chloro-3,6-difluoro-benzyloxy)-pyridin-3-yl]-phenyl}-amide], the IC50 (Table 2, read-out: Met IC50) came out at 0.114 µM. Regarding `CC(Oc1nc(-c2cncc(C(=O)NCCCN3CCOCC3)c2)cnc1N)c1c(Cl)ccc(F)c1Cl` (stereo not shown) [II-210, 5-{5-Amino-6-[1-(2,6-dichloro-3-fluoro-phenyl)-ethoxy]-pyrazin-2-yl}-N-(3-morpholin-4-yl-propyl)-nicotinamide], where the note is “read-out: Met IC50”, the IC50 is 0.022 µM. For the compound `Nc1ncc(-c2ccc(NS(=O)(=O)CCN3CCC(O)CC3)cc2)nc1OCc1c(F)ccc(F)c1Cl` [II-11, 2-(4-Hydroxy-piperidin-1-yl)-ethanesulfonic acid {4-[5-amino-6-(2-chloro-3,6-difluoro-benzyloxy)-pyrazin-2-yl]-phenyl}-amide], the concentration for half-maximal inhibition (IC50) (read-out: Met IC50) was determined as 0.65 µM.

Regarding `Nc1ncc(-c2ccc(OCc3ccccc3)c(F)c2)cc1OCc1c(Cl)cccc1Cl` [Example I-34, 5-(4-Benzyloxy-3-fluoro-phenyl)-3-(2,6-dichloro-benzyloxy)-pyridin-2-ylamine], the concentration for half-maximal inhibition (IC50) (read-out: Met IC50) is 13.5 µM. For the compound `CC(=O)N1CCN(CCNC(=O)c2cccc(-c3cnc(N)c(OCc4c(F)ccc(F)c4Cl)n3)c2)CC1` [II-59, N-[2-(4-Acetyl-piperazin-1-yl)-ethyl]-3-[5-amino-6-(2-chloro-3,6-difluoro-benzyloxy)-pyrazin-2-yl]-benzamide], under “read-out: Met IC50”, the IC50 is 2.77 µM. `CC(Oc1cc(OCc2ccncc2)cnc1N)c1c(F)ccc(F)c1Cl` (stereo not shown) [Example I-540, 3-[1-(2-Chloro-3,8-difluoro-phenyl)-ethoxy]-5-(pyridin-4-ylmethoxy)-pyridin-2-ylamine]: under setting [1], the half-inhibitory concentration (IC50) was 0.8 µM.

Take `CC(=O)N1CCN(CCS(=O)(=O)Nc2ccc(-c3cnc(N)c(OCc4c(F)ccc(F)c4Cl)n3)cc2)CC1` [II-18, 2-(4-Acetyl-piperazin-1-yl)-ethanesulfonic acid {4-[5-amino-6-(2-chloro-3,6-difluoro-benzyloxy)-pyrazin-2-yl]-phenyl}-amide]: where the note is “read-out: Met IC50”, the IC50 was 1.5 µM. Turning to `Nc1ncc(-c2ccc(NS(=O)(=O)CCN3CC[C@@H](O)C3)cc2)cc1OCc1c(F)ccc(F)c1Cl` [Example I-252, 2-[(3R)-3-Hydroxy-pyrrolidin-1-yl]-ethanesulfonic acid {4-[6-amino-5-(2-chloro-3,6-difluoro-benzyloxy)-pyridin-3-yl]-phenyl}-amide], the IC50 (Table 2, read-out: Met IC50) was determined as 0.125 µM.

For `Cc1ccc(F)c(COc2cc(-c3ccccc3)cnc2N)c1F` [Example I-101, 3-(2,6-Difluoro-3-methyl-benzyloxy)-5-phenyl-pyridin-2-ylamine], the IC50 (read-out: Met IC50) was 12 µM. With `CC(Oc1nc(-c2ccc(C(=O)N3CCC[C@H]3CN3CCCC3)cc2)cnc1N)c1c(Cl)ccc(F)c1Cl` (stereo partly drawn) [II-151, (4-{5-Amino-6-[1-(2,6-dichloro-3-fluoro-phenyl)-ethoxy]-pyrazin-2-yl}-phenyl)-((S)-2-pyrrolidin-1-ylmethyl-pyrrolidin-1-yl)-methanone], the half-inhibitory concentration (IC50) (read-out: Met IC50) is 0.18 µM.

Take `CC(Oc1cc(C#CCNC(=O)CN(C)C)cnc1N)c1c(Cl)ccc(F)c1Cl` (stereo not shown) [Example I-429, N-(3-{6-Amino-5-[1-(2,6-dichloro-3-fluoro-phenyl)-ethoxy]-pyridin-3-yl}-prop-2-ynyl)-2-dimethylamino-acetamide]: the IC50 under setting [1] came out at 0.022 µM. With `Nc1ncc(-c2ccc(O)cc2)cc1OCc1ccccc1Cl` [Example I-133, 4-[6-Amino-5-(2-chloro-benzyloxy)-pyridin-3-yl]-phenol], the half-inhibitory concentration (IC50) (read-out: Met IC50) was determined as 13.8 µM. As for `Nc1ncc(-c2ccc(C(=O)N3CC[C@@H](N)C3)cc2)cc1OCc1c(F)ccc(F)c1Cl` [Example I-218, {4-[6-Amino-5-(2-chloro-3,6-difluoro-benzyloxy)-pyridin-3-yl]-phenyl}-[(3R)-3-amino-pyrrolidin-1-yl]-methanone], where the note is “Table 2, read-out: Met IC50”, the IC50 is 0.053 µM. `N#Cc1ccccc1COc1cc(-c2ccccc2)cnc1N` [Example I-97, 2-(2-Amino-5-phenyl-pyridin-3-yloxymethyl)-benzonitrile]: the IC50 (Met IC50) was 12.2 µM. Take `CN1CCN(C(=O)c2ccccc2COc2cc(-c3ccc(NS(C)(=O)=O)cc3)cnc2N)CC1` [Example I-138, N-(4-{6-Amino-5-[2-(4-methyl-piperazine-1-carbonyl)-benzyloxy]-pyridin-3-yl}-phenyl)-methanesulfonamide]: the IC50 (read-out: Met IC50) is above 20 µM. Take `CC(Oc1cc(C#CCNC(=O)CN2CCC(O)CC2)cnc1N)c1c(Cl)ccc(F)c1Cl` (stereo not shown) [Example I-428, N-(3-{6-Amino-5-[1-(2,6-dichloro-3-fluoro-phenyl)-ethoxy]-pyridin-3-yl}-prop-2-ynyl)-2-(4-hydroxy-piperidin-1-yl)-acetamide]: the 50% inhibitory concentration (IC50) under setting [1] was found to be 0.012 µM.

For the compound `CC(Oc1cc(-c2cc(C(=O)N3CCN(C)CC3)ccn2)cnc1N)c1c(F)ccc(F)c1Cl` (stereo not shown) [Example I-518, {6′-Amino-5′-[1-(2-chloro-3,6-difluoro-phenyl)-ethoxy]-[2,3′]bipyridinyl-4-yl}-(4-methyl-piperazin-1-yl)-methanone], under setting [1], the IC50 worked out at 0.209 µM. Consider `CC(=O)N1CCN(Cc2c[nH]c3ccc(-c4cnc(N)c(OCc5c(F)ccc(F)c5Cl)n4)cc23)CC1` [II-64, 1-(4-{5-[5-Amino-6-(2-chloro-3,6-difluoro-benzyloxy)-pyrazin-2-yl]-1H-indol-3-ylmethyl}-piperazin-1-yl)-ethanone], for which the IC50 (read-out: Met IC50) came out at 1.5 µM. As to `CC(Oc1cc(-c2ccc(NS(C)(=O)=O)cc2)cnc1N)c1c(Cl)ccc(F)c1Cl` (stereo not shown) [Example I-366, N-(4-{6-Amino-5-[1-(2,6-dichloro-3-fluoro-phenyl)-ethoxy]-pyridin-3-yl}-phenyl)-methanesulfonamide], the IC50 under setting [1] was determined as 0.076 µM.

Take `Nc1ncc(-c2ccc(C(=O)N3CC[C@H](N)C3)cc2)cc1OCc1ccccc1Cl` [Example I-154, {4-[6-Amino-5-(2-chloro-benzyloxy)-pyridin-3-yl]-phenyl}-[(3S)-3-amino-pyrrolidin-1-yl]-methanone]: for the setting “read-out: Met IC50”, the 50% inhibitory concentration (IC50) turned out to be 1.44 µM. For the compound `Nc1ncc(-c2ccc(O)cc2)cc1OCc1ccc(F)cc1Cl` [Example I-129, 4-[6-Amino-5-(2-chloro-4-fluoro-benzyloxy)-pyridin-3-yl]-phenol], for the setting “read-out: Met IC50”, the IC50 is 19 µM. As for `Nc1ncc(-c2ccc3[nH]cc(CN4CCCC4)c3c2)cc1OCc1c(F)ccc(F)c1Cl` [Example I-75, 3-(2-Chloro-3,6-difluoro-benzyloxy)-5-(3-pyrrolidin-1-ylmethyl-1H-indol-5-yl)-pyridin-2-ylamine], the half-maximal inhibitory concentration (IC50) (read-out: Met IC50) was 0.7 µM. For the compound `CC(Oc1cc(-c2ccc(C(=O)N3CCN(C)CC3)cc2)cnc1N)c1c(Cl)cccc1Cl` (stereo not shown) [Example I-411, (4-{6-Amino-5-[1-(2,6-dichloro-phenyl)-ethoxy]-pyridin-3-yl}-phenyl)-(4-methyl-piperazin-1-yl)-methanone], under setting [1], the IC50 turned out to be 0.053 µM. For `CC(Oc1nc(-c2ccc(C(=O)NC[C@@H](O)CN3CCCC3)cc2)cnc1N)c1c(Cl)ccc(F)c1Cl` (stereo partly drawn) [II-146, 4-{5-Amino-6-[1-(2,6-dichloro-3-fluoro-phenyl)-ethoxy]-pyrazin-2-yl}-N-((R)-2-hydroxy-3-pyrrolidin-1-yl-propyl)-benzamide], the half-maximal inhibitory concentration (IC50) (read-out: Met IC50) was found to be 0.15 µM. Still for that read-out and setting: the figure for `Nc1ncc(-c2cccc(NS(=O)(=O)CCN3CCC(O)CC3)c2)nc1OCc1c(F)ccc(F)c1Cl` [II-22, 2-(4-Hydroxy-piperidin-1-yl)-ethanesulfonic acid {3-[5-amino-6-(2-chloro-3,6-difluoro-benzyloxy)-pyrazin-2-yl]-phenyl}-amide] is 0.7 µM.

`CC(Oc1cc(-c2cccc(C(=O)NC3CCN(C)CC3)c2)cnc1N)c1c(F)ccc(F)c1Cl` (stereo not shown) [Example I-345, 3-{6-Amino-5-[1-(2-chloro-3,6-difluoro-phenyl)-ethoxy]-pyridin-3-yl}-N-(1-methyl-piperidin-4-yl)-benzamide]: the IC50 (Table 2, read-out: Met IC50) came to 0.2 µM.

For `CC(Oc1cc(-c2ccc(N)nc2)cnc1N)c1c(Cl)ccc(F)c1Cl` (stereo not shown) [Example I-510, 5-[1-(2,6-Dichloro-3-fluoro-phenyl)-ethoxy]-[3,3′]bipyridinyl-6,6′-diamine], under setting [1], the IC50 was determined as 0.0167 µM. In the case of `Nc1ncc(-c2ccc(C(=O)N(CC3CC3)C[C@H]3CCCN3)cc2)cc1OCc1c(Cl)cccc1Cl` [Example I-50, 4-[6-Amino-5-(2,6-dichloro-benzyloxy)-pyridin-3-yl]-N-cyclopropylmethyl-N-(2R)-pyrrolidin-2-ylmethyl-benzamide], where the note is “read-out: Met IC50”, the IC50 was 0.29 µM. For the compound `CC(Oc1cc(-c2ccc(OCC(O)CN3CCOCC3)cc2)cnc1N)c1c(Cl)ccc(F)c1Cl` (stereo not shown) [Example I-359, 1-(4-{6-Amino-5-[1-(2,6-dichloro-3-fluoro-phenyl)-ethoxy]-pyridin-3-yl}-phenoxy)-3-morpholin-4-yl-propan-2-ol], for the setting “Table 2, read-out: Met IC50”, the half-maximal inhibitory concentration (IC50) turned out to be 0.045 µM. As for `Nc1ncc(-c2cccc(O)c2)cc1OCc1c(Cl)cccc1Cl` [Example I-15, 3-[6-Amino-5-(2,6-dichloro-benzyloxy)-pyridin-3-yl]-phenol], under “read-out: Met IC50”, the half-inhibitory concentration (IC50) worked out at 1.34 µM.

Regarding `Nc1ncc(-c2ccc(C(=O)NCCN3CCOCC3)cc2)cc1OCc1ccccc1Cl` [Example I-158, 4-[6-Amino-5-(2-chloro-benzyloxy)-pyridin-3-yl]-N-(2-morpholin-4-yl-ethyl)-benzamide], the IC50 (read-out: Met IC50) stood at 8.9 µM.
